Experimental data from paper PMC4515243, “Phase 1 pharmacokinetic study of the oral pan-AKT inhibitor MK-2206 in Japanese patients with advanced solid tumors” (Cancer Chemotherapy and Pharmacology, 2015).
Where “and” joins values, the source holds several entries; their conditions need not be identical. Equal entries are not always repeated.

Test system: Japanese patients with advanced solid tumors
Test: phase 1 safety and tolerability (DLT, adverse events) in Japanese patients;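 further: toxicities graded by NCI CTCAE version 3.0, treatment given until disease progression or unacceptable toxicity, three to nine patients enrolled per dose level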
[1] = all cohorts (n = 24), all treatment cycles

From the text: Treatment was continued until disease progression or the occurrence of an unacceptable toxicity.
A minimum of three and up to nine patients were enrolled at each dose level based on the toxicity probability intervals [9].
Adverse events were graded using the National Cancer Institute Common Terminology Criteria for Adverse Events, version 3.0.

NC1(c2ccc(-c3nc4ccn5c(=O)[nH]nc5c4cc3-c3ccccc3)cc2)CCC1 [MK-2206]
Pyrexia, drug-related adverse event, patients (200 mg QW (n = 9), Grades 3–5): 0 | Rash, drug-related adverse event, patients (200 mg QW (n = 9), Grades 3–5): 0 | Stomatitis, drug-related adverse event, patients (200 mg QW (n = 9), Grades 3–5): 0 | Vomiting, drug-related adverse event, patients (200 mg QW (n = 9), Grades 3–5): 0 | time until onset of DLTs (200 mg QW, grade 3 facial edema and grade 3 erythema multiforme): 10 days | time until onset of DLTs (200 mg QW, grade 3 hyperglycemia and grade 3 erythema multiforme): 11 days | time until onset of DLT (200 mg QW, grade 4 hyponatremia): 10 days | ALT increased, drug-related adverse event, patients (Total (n = 24), All grades): 4 | Blood creatinine increased, drug-related adverse event, patients (Total (n = 24), All grades): 8/24 and 8 | Decreased appetite, drug-related adverse event, patients (Total (n = 24), All grades): 7 | Diarrhea, drug-related adverse event, patients (Total (n = 24), All grades): 10/24 and 10 | Dry skin, drug-related adverse event, patients (Total (n = 24), All grades): 5 | Eosinophil count increased, drug-related adverse event, patients (Total (n = 24), All grades): 7 | Eosinophilia, drug-related adverse event, patients (Total (n = 24), All grades): 13/24 and 13 | Erythema multiforme, drug-related adverse event, patients (Total (n = 24), All grades): 4 | Fatigue, drug-related adverse event, patients (Total (n = 24), All grades): 10 | HbA1C increased, drug-related adverse event, patients (Total (n = 24), All grades): 7 | Hyperglycemia, drug-related adverse event, patients (Total (n = 24), All grades): 12/24 and 12 | Hypernatremia, drug-related adverse event, patients (Total (n = 24), All grades): 5 | Hypoalbuminemia, drug-related adverse event, patients (Total (n = 24), All grades): 4 | Hypokalemia, drug-related adverse event, patients (Total (n = 24), All grades): 4 | Insulin c-peptide increased, drug-related adverse event, patients (Total (n = 24), All grades): 16/24 and 16 | Leukopenia, drug-related adverse event, patients (Total (n = 24), All grades): 12/24 and 12 | Localized edema, drug-related adverse event, patients (Total (n = 24), All grades): 4 | Lymphopenia, drug-related adverse event, patients (Total (n = 24), All grades): 9/24 and 9 | Nausea, drug-related adverse event, patients (Total (n = 24), All grades): 5 | Neutropenia, drug-related adverse event, patients (Total (n = 24), All grades): 9/24 and 9 | Palmar-plantar erythrodysaesthesia syndrome, drug-related adverse event, patients (Total (n = 24), All grades): 4 | Pruritus, drug-related adverse event, patients (Total (n = 24), All grades): 10 | Pyrexia, drug-related adverse event, patients (Total (n = 24), All grades): 13/24 and 13 | Rash, drug-related adverse event, patients (Total (n = 24), All grades): 20/24 and 20 | Stomatitis, drug-related adverse event, patients (Total (n = 24), All grades): 14/24 and 14 | Vomiting, drug-related adverse event, patients (Total (n = 24), All grades): 4 | ALT increased, drug-related adverse event, patients (Total (n = 24), Grades 3–5): 1 | Blood creatinine increased, drug-related adverse event, patients (Total (n = 24), Grades 3–5): 0 | Decreased appetite, drug-related adverse event, patients (Total (n = 24), Grades 3–5): 1 | Diarrhea, drug-related adverse event, patients (Total (n = 24), Grades 3–5): 1 | Dry skin, drug-related adverse event, patients (Total (n = 24), Grades 3–5): 0 | Eosinophil count increased, drug-related adverse event, patients (Total (n = 24), Grades 3–5): 0 | Eosinophilia, drug-related adverse event, patients (Total (n = 24), Grades 3–5): 0 | Erythema multiforme, drug-related adverse event, patients (Total (n = 24), Grades 3–5): 2 | Fatigue, drug-related adverse event, patients (Total (n = 24), Grades 3–5): 0 | HbA1C increased, drug-related adverse event, patients (Total (n = 24), Grades 3–5): 0 | Hyperglycemia, drug-related adverse event, patients (Total (n = 24), Grades 3–5): 2 | Hypernatremia, drug-related adverse event, patients (Total (n = 24), Grades 3–5): 1 | Hypoalbuminemia, drug-related adverse event, patients (Total (n = 24), Grades 3–5): 0 | Hypokalemia, drug-related adverse event, patients (Total (n = 24), Grades 3–5): 0 | Insulin c-peptide increased, drug-related adverse event, patients (Total (n = 24), Grades 3–5): 0 | Leukopenia, drug-related adverse event, patients (Total (n = 24), Grades 3–5): 1 | Localized edema, drug-related adverse event, patients (Total (n = 24), Grades 3–5): 0 | Lymphopenia, drug-related adverse event, patients (Total (n = 24), Grades 3–5): 6 | Nausea, drug-related adverse event, patients (Total (n = 24), Grades 3–5): 1 | Neutropenia, drug-related adverse event, patients (Total (n = 24), Grades 3–5): 1 | Palmar-plantar erythrodysaesthesia syndrome, drug-related adverse event, patients (Total (n = 24), Grades 3–5): 0 | Pruritus, drug-related adverse event, patients (Total (n = 24), Grades 3–5): 0 | Pyrexia, drug-related adverse event, patients (Total (n = 24), Grades 3–5): 0 | Rash, drug-related adverse event, patients (Total (n = 24), Grades 3–5): 1 | Stomatitis, drug-related adverse event, patients (Total (n = 24), Grades 3–5): 0 | Vomiting, drug-related adverse event, patients (Total (n = 24), Grades 3–5): 0 | treatment-related deaths (all cohorts): No treatment-related deaths | diarrhea related to MK-2206, percent of patients [1]: 41.7% | elevated blood creatinine level related to MK-2206, percent of patients [1]: 33.3% | elevated insulin c-peptide level related to MK-2206, percent of patients [1]: 66.7% | eosinophilia related to MK-2206, percent of patients [1]: 54.2% | hyperglycemia related to MK-2206, percent of patients [1]: 50.0% | leukopenia related to MK-2206, percent of patients [1]: 50.0% | lymphopenia related to MK-2206, percent of patients [1]: 37.5% | neutropenia related to MK-2206, percent of patients [1]: 37.5% | pyrexia related to MK-2206, percent of patients [1]: 54.2% | rash related to MK-2206, percent of patients [1]: 83.3% | stomatitis related to MK-2206, percent of patients [1]: 58.3%
